In article PMC8997241, “Structurally Various Sorbicillinoids From an Endophytic Fungus Acremonium citrinum SS-g13” (Frontiers in Microbiology, 2022):
Entries after “also recorded” stand apart in the source; their conditions may differ.

Tested on: J774A.1 macrophages
Test: Serum-mediated cholesterol efflux (BODIPY-cholesterol)
Assay type: cell-based
Settings: compounds 10 µM, 24 h, then serum 6 h; pioglitazone 3 µM positive control

C/C=C/C=C/C(O)=C1/C(=O)C(C)=C(O)[C@@]2(C)O[C@@]3(O)[C@@](C)(O)C(=O)C(C(=O)CC/C=C/C)=C(O)[C@@]3(C)[C@@H]12 [Compound 11, dihydrobisvertinolone]
cholesterol efflux enhancing activity: significant cholesterol efflux enhancing activity; also recorded: exhibited cholesterol efflux enhancing activity
